Experimental data as given in patent US20160324875A1, “CUTANEOUS COMPOSITION COMPRISING VITAMIN D ANALOGUE AND A MIXTURE OF SOLVENT AND SURFACTANTS” (LEO PHARMA A/S, priority 2009, published 2016).
“Also recorded” adds a separate entry of the source.

Key:
[1] = skin diffusion experiment (Franz diffusion cells); type: in vitro ADME, pig; settings: from a composition of the invention, 4 mg/cm^2, 21 hours, FIG. 3, % of applied dose
Experimental: To investigate the skin penetration and permeation of calcipotriol from compositions of the invention, a skin diffusion experiment was conducted. Full thickness skin from pig ears was used in the study. The ears were kept frozen at -18° C. before use. On the day prior to the experiment the ears were placed in a refrigerator (5±3° C.) for slow defrosting. On the day of the experiment, the hairs were removed using a veterinary hair trimmer. The skin was cleaned for subcutaneous fat using a scalpel and two pieces of skin were cut from each ear and mounted on Franz diffusion cells in a balanced order.
Static Franz-type diffusion cells with an available diffusion area of 3.14 cm^2 and receptor volumes ranging from 8.6 to 11.1 ml were used in substantially the manner described by T. J. Franz, “The finite dose technique as a valid in vitro model for the study of percutaneous absorption in man”, in Current Problems in Dermatology, 1978, J. W. H. Mall (Ed.), Karger, Basel, pp. 58-68. The specific volume was measured and registered for each cell. A magnetic bar was placed in the receptor compartment of each cell. […]
The in vitro skin permeation of each test composition was tested in 6 replicates (i.e. n=6). […] A glass spatula was used for the application, and the residual amount of the composition was determined so as to give the amount of the composition actually applied on the skin. […]

[2] = tested on: IL-la; test: release of IL-1a from calcipotriol ointment containing glycerol; settings: 5%, 10%, 15% by weight of glycerol in a calcipotriol ointment
[3] = tested on: gene encoding cathelicidin; test: induction of the gene encoding cathelicidin in reconstructed human epidermis (qPCR); type: cell-based; settings: glycerol 5% vs 10% or 15% by weight in calcipotriol composition
From the text: In psoriasis, the level of cathelicidin is increased in lesional skin of psoriasis patients. […] This finding has been utilized to develop an assay in which the uptake and biological activity of calcipotriol in human keratinocytes from the tested compositions has been determined by measuring the level of induction of the gene encoding cathelicidin.
In the assay, composition 1A prepared as described in Example 1 above was applied topically in triplicate on reconstructed human epidermis consisting of normal human keratinocytes cultured for 12 days on 0.5 cm^2 polycarbonate filters (available from SkinEthic® Laboratories, Nice, France) in an amount of […]. The tissue was treated for two days followed by separation of the epidermis from the polycarbonate filter and snap-frozen in liquid nitrogen. RNA was extracted from the cells and cDNA synthesized by conventional procedures. Quantitative real-time PCR (qPCR) was then performed using the following assays from Applied Biosystems: CAMP Hs0018038_ml and GAPDH Hs99999905_ml. The expression levels of cathelicidin were normalized to GAPDH and a relative quantification was made by comparison with Daivonex® ointment.

[4] = one study, Hannuksela et al. 1975; cited from earlier work

SMILES: C=C1/C(=C\C=C2/CCC[C@]3(C)[C@@H]([C@H](C)/C=C/[C@@H](O)C4CC4)CC[C@@H]23)C[C@@H](O)C[C@@H]1O [calcipotriol, Calcipotriol]
- calcipotriol penetrated into viable layers of the skin (dermis and epidermis) [1]: a significant amount
- calcipotriol permeated through the skin into the receptor fluid [1]: Very little; also recorded: only a minor amount

SMILES: OCC(O)CO [glycerol]
- release of IL-la [2]: reduce the release of IL-la in a dose-dependent manner
- expression of cathelicidin [3]: increased with a low amount of glycerol

SMILES: CC(O)CO (centres unmarked) [propylene glycol]
- number of irritant reactions [4]: 12.5%
